Drawing on patent publication US5420138A, “Bicyclic pyridines which are angiotensin II inhibitors” (Roussel-UCLAF, priority 1992, dated 1995), this text covers ED50 and IC50 for two compounds.

pIC50: −log10 of the molar value.

In experiment [1] the test system is angiotensin II. Put plainly: Test for antagonistic activity of angiotensin II in a demedullated rat (intravenous). Type of experiment: in vivo, Male Sprague-Dawley rats. The settings on record: injected via right jugular vein 5 minutes before angiotensin II (0.75 micrograms/kg), diastolic arterial pressure, read-out: ID50 (dose inhibiting the effects on pressure of angiotensin II by 50%). The procedure: Male Sprague-Dawley rats (250 to 350 g) were anaesthetized by an intra-peritoneal injection of sodium pentobarbital (60 mg/kg). The diastolic arterial pressure was recorded using a heparinated catheter (PE50) introduced into the left carotid artery of the animal, and connected to a pressure processor (Gould, Pressure Processor) by means of a Gould pressure sensor.
A catheter was introduced into the right jugular vein of the animal to permit the injection of the molecules to be studied.
The animal was placed under assisted respiration. A bilateral section of the pneumogastric nerve is carried out. The rat is then demedullated.
After a sufficient period of stabilization, the study of the antagonism of the molecules vis-a-vis angiotensin II (Hypertensin, CIBA) was carried out in the following way:
1--Three consecutive injections of angiotensin II (0.75 micrograms/kg) at 15 minute intervals enabled a reproducible and stable pressure response to be obtained.
2--While keeping an administration frequency of 15 minutes of the angiotensin II, the molecules (0.01 to 10 mg/kg) were injected 5 minutes before the angiotensin II.
The effects on pressure of angiotensin II in the presence of the antagonist were expressed as a percentage of the effects on pressure of angiotensin II administered on its own. The dose inhibiting the studied effect by 50% was determined in this way (ID50). […]

The target in the next experiment is T1, angiotensin II receptor (Rattus norvegicus, UniProt P25095).
T1 construct: A fresh membrane preparation obtained from the liver of a rat was used; from tissue; host or cells: rat liver, fresh membrane preparation
T1 sequence (P25095 1-359): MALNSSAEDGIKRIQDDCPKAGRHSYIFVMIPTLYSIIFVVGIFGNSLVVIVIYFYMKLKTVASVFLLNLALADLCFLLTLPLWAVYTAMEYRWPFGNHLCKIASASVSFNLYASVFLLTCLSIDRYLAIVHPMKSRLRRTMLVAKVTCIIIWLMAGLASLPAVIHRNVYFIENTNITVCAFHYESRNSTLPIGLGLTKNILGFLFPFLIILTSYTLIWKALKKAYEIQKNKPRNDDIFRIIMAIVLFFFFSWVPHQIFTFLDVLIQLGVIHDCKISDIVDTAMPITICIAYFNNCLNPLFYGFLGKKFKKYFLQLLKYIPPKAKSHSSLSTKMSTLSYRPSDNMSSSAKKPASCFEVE
Put plainly: Test on the angiotensin II receptor (displacement of 125I angiotensin II, fresh rat liver membrane preparation). Type of experiment: binding. The settings on record: rat liver membranes, 25° C., 150 minutes, read-out: IC50 (50% inhibiting concentration, displacement of 125I angiotensin II). As to the method: A fresh membrane preparation obtained from the liver of a rat was used. The tissue was ground in a polytron in a Tris 50 mM pH 7.4 buffer and the grinding is followed by 3 centrifugings at 30,000 g for 15 minutes with intermediate taking up of the pellets in the Tris pH 7.4 buffer.
The last pellets were suspended in an incubation buffer (Tris 20 mM, NaCl 135 mM, KCl 10 mM, glucose 5 mM, MgCl2 10 mM, PMSF 0.3 mM, bacitracin 0.1 mM, BSA 0.2%).
2 ml aliquot fractions were distributed in hemolysis tubes and ^125 I angiotensin II (25,000 DPM/tube) and the product to be studied were added. The product was first tested with 3×10^-5 M in triplicate. When the tested product displaced more than 50% of the radioactivity bound specifically to the receptor, it was tested again according to a range of 7 concentrations to determine the concentration which inhibited by 50% the radioactivity bound specifically to the receptor. In this way, the 50% inhibiting concentration was determined.
The non-specific bond was determined by the addition of the product of Example 94 of the European Patent 0253310, at 10^-5 M (in triplicate).The product was incubated at 25° C. for 150 minutes, put in a water-bath at 0° C. for 5 minutes, filtered under vacuum, rinsed with Tris pH 7.4 buffer and the radioactivity was counted in the presence of scintillating Triton. […]
A general note: Loss of bound radioactivity is the signal in a displacement assay; it reports binding, not function.

The test system of experiment [2] is angiotensin II. Description: Test of the antagonistic activity of angiotensin II by oral route in a demedullated rat. Type of experiment: in vivo, Male Sprague Dawley rats. The conditions noted are these: oral (force-feeding), angiotensin II 0.75 ug/kg 60 and 75 minutes after force-feeding, read-out: ID50 (dose inhibiting the effects on pressure of angiotensin II by 50%), oral route. As to the method: Male Sprague Dawley rats of equal weight (300-330 g) were selected. The animals were divided into several groups (n ≥6 per group), receiving either the solvent (control group) or the antagonistic molecule of angiotensin II. The doses administered were determined from the ID50 IV. The solvent used. was methyl cellulose (5 ml/kg).
45 minutes after force-feeding, the animals were anaesthetized with sodium pentobarbital (60 mg/kg, IP). The diastolic arterial pressure was recorded using a heparinated catheter (PE50) introduced into the left carotid artery of the animal, and connected by means of a pressure sensor (Gould, P10 EZ) to a pressure processor (Gould, Pressure Processor). The rat was put under assisted respiration, then demedullated and bilaterally vagotomized.
Two injections of angiotensin II (0.75 ug/kg; Hypertensin, Ciba) were given via the pudendal vein, 60 and 75 minutes respectively after the force-feeding of the animals.
The effects on pressure of angiotensin II in the presence of the antagonist were expressed as a percentage of the effects on pressure of angiotensin II administered to the control group.
For each product, the dose inhibiting the studied effect by 50% (ID50) was thus determined.

Consider `CCCCc1nn2cccc(C(=O)O)c2c1Cc1ccc(-c2ccccc2-c2nnn[nH]2)cc1` [Example 21, 2-butyl 3-[(2'-(1H-tetrazol-5-yl) (1,1'-biphenyl) 4-yl)methyl]pyrazolo(1,5-a)pyridin 4-carboxylic acid], for which the ED50 in the experiment on angiotensin II [1] stood at 0.3 mg/kg; in the experiment with angiotensin II [2], 2.35 mg/kg. The pIC50 at angiotensin II receptor is 9.30.
For `CCCCc1nn2c(C)cccc2c1Cc1ccc(-c2ccccc2-c2nn[nH]n2)cc1` [Example 32, 2-butyl 7-methyl 3-[[2'-(1H-tetrazol--S--yl) (1,1'-biphenyl) 4-yl]methyl]pyrazolo (1,5-a) pyridine], on angiotensin II receptor, the pIC50 is 7.62.
